Measured values reported in ChEMBL document CHEMBL3286379, “Design and synthesis of pyrimidine molecules endowed with thiazolidin-4-one as new anticancer agents” (Eur J Med Chem, 2014).

Legend:
Assay type in all cases: functional
[1] = Growth inhibition of human MOLT4 cells after 48 hrs by sulforhodamine B assay; details: MOLT-4, 48 h
[2] = test system: NCI-H226; test: Growth inhibition of human NCI-H226 cells after 48 hrs by sulforhodamine B assay; details: NCI-H226, 48 h
[3] = Growth inhibition of human SF539 cells after 48 hrs by sulforhodamine B assay; details: SF-539, 48 h
[4] = test system: MDA-MB-435; test: Growth inhibition of human MDA-MB-435 cells after 48 hrs by sulforhodamine B assay; details: MDA-MB-435, 48 h
[5] = test system: SK-MEL-5; test: Growth inhibition of human SK-MEL-5 cells after 48 hrs by sulforhodamine B assay; details: SK-MEL-5, 48 h
[6] = test system: MDA-MB-468; test: Growth inhibition of human MDA-MB-468 cells after 48 hrs by sulforhodamine B assay; details: MDA-MB-468, 48 h
[7] = test system: A549; test: Growth inhibition of human A549/ATCC cells after 48 hrs by sulforhodamine B assay; details: A549, 48 h
[8] = test system: SK-OV-3; test: Growth inhibition of human SKOV3 cells after 48 hrs by sulforhodamine B assay; details: SK-OV-3, 48 h
[9] = test system: A498; test: Growth inhibition of human A498 cells after 48 hrs by sulforhodamine B assay; details: A498, 48 h
[10] = test system: ACHN; test: Growth inhibition of human ACHN cells after 48 hrs by sulforhodamine B assay
[11] = test system: HOP-62; test: Growth inhibition of human HOP62 cells after 48 hrs by sulforhodamine B assay; details: HOP-62, 48 h
[12] = read-out: LC50 (the source's name)
[13] = read-out: pLC50 (the source's name) (converted)

Work on `Nc1nc(-c2ccccc2Cl)cc(-c2ccc(Cl)cc2Cl)n1` yielded a GI50 ([1]; read-out: GI50) of 4.82 µM, a CC50 [1, 12] of over 100 µM and a TGI ([1]; read-out: TGI) of over 100 µM. For the same molecule, the GI50 ([1]; read-out: pGI50 (converted)) was 4.79 µM, the CC50 [1, 13] was over 100 µM and the TGI ([1]; read-out: pTGI) was over 100 µM. The GI50 ([2]; read-out: GI50) was 81.1 µM, the CC50 [2, 12] was over 100 µM and the TGI ([2]; read-out: TGI) was over 100 µM. The GI50 ([2]; read-out: pGI50 (converted)) was 18.2 µM, the CC50 [2, 13] was over 100 µM and the TGI ([2]; read-out: pTGI) was over 100 µM. It also gave a GI50 ([3]; read-out: GI50) of 7.39 µM, a CC50 [3, 12] of over 100 µM and a TGI ([3]; read-out: TGI) of 67 µM. For the same molecule, the GI50 ([3]; read-out: pGI50 (converted)) was 7.41 µM, the CC50 [3, 13] was over 100 µM and the TGI ([3]; read-out: pTGI (converted)) was 67.6 µM. For the same molecule, the GI50 ([4]; read-out: GI50) was 1.97 µM, the CC50 [4, 12] was over 100 µM and the TGI ([4]; read-out: TGI) was 4.93 µM. The GI50 ([4]; read-out: pGI50 (converted)) was 1.95 µM, the CC50 [4, 13] was over 100 µM and the TGI ([4]; read-out: pTGI (converted)) was 4.9 µM. The GI50 ([5]; read-out: GI50) was 4.78 µM, the CC50 [5, 12] was 71.1 µM and the TGI ([5]; read-out: TGI) was 20.8 µM. It also gave a GI50 ([5]; read-out: pGI50 (converted)) of 4.79 µM, a CC50 [5, 13] of 70.8 µM and a TGI ([5]; read-out: pTGI (converted)) of 20.9 µM. The GI50 ([6]; read-out: GI50) was 2.18 µM, the CC50 [6, 12] was over 100 µM and the TGI ([6]; read-out: TGI) was 8.66 µM. It also gave a GI50 ([6]; read-out: pGI50 (converted)) of 2.19 µM, a CC50 [6, 13] of over 100 µM and a TGI ([6]; read-out: pTGI (converted)) of 8.71 µM. For the same molecule, the GI50 ([7]; read-out: GI50) was 4.81 µM, the CC50 [7, 12] was over 100 µM and the TGI ([7]; read-out: TGI) was over 100 µM. For the same molecule, the GI50 ([7]; read-out: pGI50 (converted)) was 4.79 µM, the CC50 [7, 13] was over 100 µM and the TGI ([7]; read-out: pTGI) was over 100 µM. The GI50 ([8]; read-out: GI50) was 10.1 µM, the CC50 [8, 12] was over 100 µM and the TGI ([8]; read-out: TGI) was 62.3 µM. It also gave a GI50 ([8]; read-out: pGI50 (converted)) of 10 µM, a CC50 [8, 13] of over 100 µM and a TGI ([8]; read-out: pTGI (converted)) of 61.7 µM. The GI50 ([9]; read-out: GI50) was 3.34 µM, the CC50 [9, 12] was over 100 µM and the TGI ([9]; read-out: TGI) was 22.8 µM. It also gave a GI50 ([9]; read-out: pGI50 (converted)) of 3.31 µM, a CC50 [9, 13] of over 100 µM and a TGI ([9]; read-out: pTGI (converted)) of 22.9 µM. The GI50 ([10]; read-out: GI50) was 10.4 µM, the CC50 [10, 12] was over 100 µM and the TGI ([10]; read-out: TGI) was over 100 µM. The GI50 ([10]; read-out: pGI50 (converted)) was 10.5 µM, the CC50 [10, 13] was over 100 µM and the TGI ([10]; read-out: pTGI) was over 100 µM. For the same molecule, the GI50 ([11]; read-out: GI50) was 8.21 µM, the CC50 [11, 12] was over 100 µM and the TGI ([11]; read-out: TGI) was over 100 µM. It also gave a GI50 ([11]; read-out: pGI50 (converted)) of 8.13 µM, a CC50 [11, 13] of over 100 µM and a TGI ([11]; read-out: pTGI) of over 100 µM.
